Results from patent publication US20250235545A1, “POLYPEPTIDE CONJUGATE AND USE THEREOF” (SHANGHAI CHIXI BIOMEDICAL TECHNOLOGY CO., LTD, priority 2024, published 2025).
Values after ≈ are worked out from the molar mass of the structure shown. Where two headings read alike, the source gives them in different places. Where a SMILES comes first, the peptide text is derived from it. The star is where a group is joined. X6 = CCCCCN(CCc1c2c(nc3ccccc13)-c1cc3c(c(=O)n1C2)COC(=O)[C@]3(O)CC)*; X4 = CCCN(CCc1c2c(nc3ccccc13)-c1cc3c(c(=O)n1C2)COC(=O)[C@]3(O)CC)*; X3 = CC[C@@]1(O)C(=O)OCc2c1cc1n(c2=O)Cc2c-1nc1ccccc1c2CCN(C1CC1)*; Propanoyl(3-maleimido) = O=C1C=CC(=O)N1CCC(=O)*; PEG6 = NCCOCCOCCOCCOCCOCCOCCC(=O)O

Key:
[1] = tested on: sarcoma SJSA-1 tumor model; settings: Table 2
In short: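 Female BALB/c nude mice (6-8 weeks) bearing subcutaneous right-chest SJSA-1 xenografts from 2×10^7 cells were randomized, three per group, once tumors reached at least 100 mm^3. Treatment given once a week for three weeks starting day 1; saline controls.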

[2] = Tumor homogenate activation efficiency, small cell lung cancer tissue (Example 28); assay type: in vitro ADME; settings: pH 5.0, 37° C., 2 h; Table 5
Description: (§1) Buffer preparation: 50 mM PH buffer (MES), 250 mM NaCl, pH adjusted to 5.0 with 0.5 M of sodium hydroxide.
(§2) The polypeptide conjugate was prepared into a 1 mg/ml solution with pH 5.0 buffer, 100 μg of tumor tissue homogenate was added, (the tumor tissue homogenate was the homogenate of tumor tissues prepared with a Jingxin F6/10 handheld homogenizer), and the solution was placed at 37° C. for 2 h. The tumor tissue homogenate could effectively activate the polypeptide conjugate and release Belotecan, and the activation efficiencies of the drugs in tumor tissues were compared by high-performance liquid chromatography (HPLC) allowing determination of a decrease in the compounds and an increase in Belotecan:
(§3) Release percentage=peak area of Belotecan/total peak area of Belotecan and all other Belotecan-containing compounds

[3] = tested on: SJSA-1 (sarcoma tissue); assay: cells; assay type: cell-based; settings: CCK8, 48 h; Table 1
In short: (§4)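 Following a 48 h drug exposure of 5,000 seeded cells per well, wells received CCK8 and, after about 2 h incubation, optical density at 450 nm was recorded. IC50 values were computed from survival rates versus solvent-only wells.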

[4] = tested on: SKBR3 (breast cancer tissue); assay: cells; assay type: cell-based; settings: CCK8, 48 h; Table 1
In short: as §4

[5] = tested on: A2780 (ovarian cancer); assay: cells; assay type: cell-based; settings: CCK8, 48 h; Table 1
In short: as §4

[6] = tested on: A549 (non-small cell lung cancer); assay: cells; assay type: cell-based; settings: CCK8, 48 h; Table 1
In short: as §4

[7] = Tumor homogenate activation efficiency, breast cancer tissue (Examples 28, 37); assay type: in vitro ADME; settings: pH 5.0, 37° C., 2 h; Table 5
Description: as §1, §2, §3
(§5) The polypeptide conjugate was prepared into a 1 mg/ml solution with pH 5.0 buffer, 100 μg of tumor tissue homogenate was added, (the tumor tissue homogenate was the homogenate of tumor tissues prepared with a Jingxin F6/10 handheld homogenizer), and the solution was placed at 37° C. for 2 h. The tumor tissue homogenate could effectively activate the polypeptide conjugate and release Belotecan, and the activation efficiencies of the drugs in tumor tissues were compared by HPLC allowing determination of a decrease in the compounds and an increase in Belotecan: […]

[8] = tested on: A2780 ovarian cancer tumor model; assay: Efficacy in animal model of A2780 ovarian cancer, 30 mg/kg once a week for two weeks (Example 41); assay type: in vivo, BALB/c mice
Description: Test objective: To further compare the antitumor efficacy of different polypeptide Linkers in an animal tumor model of A2780 ovarian cancer.
(§6) Test drug: Polypeptide conjugate and normal saline control group.
8×10^6 corresponding cells were injected into right axillas of nude mice subcutaneously. […] The negative control group was administered normal saline. Administration was performed once a week for two weeks.

[9] = Homogenate activation efficiency, heart tissue (Examples 28, 37); assay type: in vitro ADME; settings: pH 5.0, 37° C., 2 h; Table 5
[10] = MTD determination in mice (Examples 27, 36, 44); assay type: in vivo; settings: female, mouse, in vivo; mice, monitored for 14 d; Table 4
Source text: Test animals: 6-8 weeks old mice, all female; mice were grouped randomly, with six mice in each group, administered with drugs at different concentration gradients separately and monitored for 14 d. A mouse was euthanized at a loss of 20% of its initial weight and deemed to have died of poisoning.

[11] = tested on: sarcoma SJSA-1 tumor model; assay: Efficacy in animal model of sarcoma SJSA-1, 30 mg/kg once a week for two weeks (Example 40); assay type: in vivo, BALB/c mice; settings: 30 mg/kg once a week for two weeks
Description: Test objective: To further compare the antitumor efficacy of different polypeptide Linkers in an animal tumor model of sarcoma SJSA-1.
as §6
The control group was administered normal saline. Administration was performed once a week for two weeks.

[12] = Tumor homogenate activation efficiency, ovarian cancer tissue (Examples 28, 37); assay type: in vitro ADME; settings: pH 5.0, 37° C., 2 h; Table 5
Description: as §1, §2, §3, §5

[13] = Tumor homogenate activation efficiency, non-small cell lung cancer tissue (Examples 28, 37); assay type: in vitro ADME; settings: pH 5.0, 37° C., 2 h; Table 5
Description: as §1, §2, §3, §5

[14] = Tumor homogenate activation efficiency, sarcoma tissue (Examples 28, 37); assay type: in vitro ADME; settings: pH 5.0, 37° C., 2 h; Table 5
Description: as §1, §2, §3, §5

[15] = tested on: colo320 colorectal cancer tumor model
In short: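 Dosing was once a week for four weeks, with saline as control, in randomized groups of three mice. Groups were formed after subcutaneous colo320 xenografts (7.5×10^6 cells, right chest) grew to ≥120 mm^3 in female 6–8-week-old BALB/c nude mice.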

[16] = 15 mg/kg once a week for three weeks
[17] = 45 mg/kg once a week for three weeks
[18] = 15 mg/kg once a week for four weeks, Table 3
[19] = 45 mg/kg once a week for four weeks, Table 3

SMILES	Mouse weight (%) [1, 16]	SJSA-1 (sarcoma tissue) mean tumor volume (mm^3) [1, 16] [mm^3]	SJSA-1 (sarcoma) Growth rate (%) [1, 16] [%]	Mouse weight (%) [1, 17]	SJSA-1 (sarcoma tissue) mean tumor volume (mm^3) [1, 17] [mm^3]	Percentage of release efficiency (%) Small cell lung cancer tissue (NCI-H841) [2] [%]	IC50 SJSA-1 (sarcoma tissue) [3] [µg/mL]	IC50 SKBR3 (breast cancer tissue) [4] [µg/mL]	IC50 A2780 (ovarian cancer) [5] [µg/mL]	IC50 A549 (non-small cell lung cancer) [6] [µg/mL]	Percentage of release efficiency (%) Breast cancer tissue (SKBR3) [7] [%]	Mouse weight (%) on Day 14 [8]	Percentage of release efficiency (%) Heart tissue [9] [%]	MTD at 14 d [10] [mg/kg]	Mouse weight (%) on Day 14 [11]	Percentage of release efficiency (%) Ovarian cancer tissue (A2780) [12] [%]	Percentage of release efficiency (%) Non-small cell lung cancer tissue (A549) [13] [%]	Percentage of release efficiency (%) Sarcoma tissue (SJSA1) [14] [%]	Mouse weight (%) [15, 18]	Mouse weight (%) [15, 19]	further results
CCCN(CCc1c2c(nc3ccccc13)-c1cc3c(c(=O)n1C2)COC(=O)[C@]3(O)CC)C(=O)CNC(=O)[C@H](CC(N)=O)NC(=O)[C@H](C)NC(=O)[C@H](C)NC(=O)CCOCCOCCOCCOCCOCCOCCNC(=O)CCN1C(=O)C=CC1=O [MI-6PEG-AANG-D3] ({Propanoyl(3-maleimido)-PEG6}-AANG-X4)	+29%	1325.4	1095.4	+26%	1098.2	71.2	1.63 (≈ 1.32 µM)	2.42 (≈ 1.96 µM)	1.80 (≈ 1.46 µM)	3.41 (≈ 2.76 µM)	84.6	+11.4%	3.6	350	+3.6%	76.2	82.6	88.9	+31%	+20%	SJSA-1 (sarcoma) Growth rate (%) [1, 17]: 930.68%; A2780 (ovarian cancer) mean tumor volume (mm^3) Day 1 [8]: 138.55 mm^3; A2780 (ovarian cancer) mean tumor volume (mm^3) Day 4 [8]: 302.74 mm^3; A2780 (ovarian cancer) mean tumor volume (mm^3) Day 7 [8]: 742.51 mm^3; A2780 (ovarian cancer) mean tumor volume (mm^3) Day 10 [8]: 898.06 mm^3; A2780 (ovarian cancer) mean tumor volume (mm^3) Day 14 [8]: 1141.65 mm^3; Growth rate (%) of A2780 (ovarian cancer) on Day 14 [8]: 824.00%; SJSA-1 (sarcoma tissue) mean tumor volume (mm^3) Day 1 [11]: 132.12 mm^3; SJSA-1 (sarcoma tissue) mean tumor volume (mm^3) Day 4 [11]: 360.28 mm^3; SJSA-1 (sarcoma tissue) mean tumor volume (mm^3) Day 7 [11]: 610.04 mm^3; SJSA-1 (sarcoma tissue) mean tumor volume (mm^3) Day 10 [11]: 833.76 mm^3; SJSA-1 (sarcoma tissue) growth rate (%) on Day 14 [11]: 1002.12%; SJSA-1 (sarcoma tissue) mean tumor volume (mm^3) Day 14 [11]: 1324.00 mm^3; colo320 (colorectal cancer cell) growth rate (%) [15, 18]: 985.14%; colo320 (colorectal cancer cell) mean tumor volume (mm^3) [15, 18]: 1091.1 mm^3; colo320 (colorectal cancer cell) growth rate (%) [15, 19]: 481.06%; colo320 (colorectal cancer cell) mean tumor volume (mm^3) [15, 19]: 532.8 mm^3
CCCCCN(CCc1c2c(nc3ccccc13)-c1cc3c(c(=O)n1C2)COC(=O)[C@]3(O)CC)C(=O)CNC(=O)[C@H](CC(N)=O)NC(=O)[C@H](C)NC(=O)[C@H](C)NC(=O)CCOCCOCCOCCOCCOCCOCCNC(=O)CCN1C(=O)C=CC1=O [MI-6PEG-AANG-D4] ({Propanoyl(3-maleimido)-PEG6}-AANG-X6)	+27%	1305.6	1081.87	+26%	994.5	67.2	2.52 (≈ 2 µM)	4.54 (≈ 3.6 µM)	4.88 (≈ 3.87 µM)	6.37 (≈ 5.05 µM)	80.7	+9.6%	2.4	350	+4.1%	86.7	78.7	72.4	+40%	+18%	SJSA-1 (sarcoma) Growth rate (%) [1, 17]: 842.80%; A2780 (ovarian cancer) mean tumor volume (mm^3) Day 1 [8]: 138.58 mm^3; A2780 (ovarian cancer) mean tumor volume (mm^3) Day 4 [8]: 278.49 mm^3; A2780 (ovarian cancer) mean tumor volume (mm^3) Day 7 [8]: 624.53 mm^3; A2780 (ovarian cancer) mean tumor volume (mm^3) Day 10 [8]: 791.18 mm^3; A2780 (ovarian cancer) mean tumor volume (mm^3) Day 14 [8]: 977.54 mm^3; Growth rate (%) of A2780 (ovarian cancer) on Day 14 [8]: 705.40%; SJSA-1 (sarcoma tissue) mean tumor volume (mm^3) Day 1 [11]: 131.57 mm^3; SJSA-1 (sarcoma tissue) mean tumor volume (mm^3) Day 4 [11]: 385.46 mm^3; SJSA-1 (sarcoma tissue) mean tumor volume (mm^3) Day 7 [11]: 607.62 mm^3; SJSA-1 (sarcoma tissue) mean tumor volume (mm^3) Day 10 [11]: 847.33 mm^3; SJSA-1 (sarcoma tissue) growth rate (%) on Day 14 [11]: 941.81%; SJSA-1 (sarcoma tissue) mean tumor volume (mm^3) Day 14 [11]: 1239.14 mm^3; colo320 (colorectal cancer cell) growth rate (%) [15, 18]: 870.11%; colo320 (colorectal cancer cell) mean tumor volume (mm^3) [15, 18]: 963.7 mm^3; colo320 (colorectal cancer cell) growth rate (%) [15, 19]: 544.80%; colo320 (colorectal cancer cell) mean tumor volume (mm^3) [15, 19]: 603.4 mm^3
CC[C@@]1(O)C(=O)OCc2c1cc1n(c2=O)Cc2c-1nc1ccccc1c2CCN(C(=O)CNC(=O)[C@H](CC(N)=O)NC(=O)[C@H](C)NC(=O)[C@H](C)NC(=O)CCOCCOCCOCCOCCOCCOCCNC(=O)CCN1C(=O)C=CC1=O)C1CC1 [MI-6PEG-AANG-D6] ({Propanoyl(3-maleimido)-PEG6}-AANG-X3)	+24%			+3%		76	0.49 (≈ 0.398 µM)	1.81 (≈ 1.47 µM)	0.77 (≈ 0.625 µM)	1.55 (≈ 1.26 µM)	82.1	+8.5%	2.5	200	−0.6%	75.9	73.1	79.9	+27%	+17%	Mouse weight (%) ([15]; Table 14 (Example 43), dose 45 mg/kg, once a week for four weeks, BALB/c mice): +17%
